{"source": "paper PMC12624743", "about": "(ACS Infectious Diseases, 2025)", "key": {"[1]": {"system": "uncomplicated urogenital gonorrhea", "parameters": "method as in recent phase III clinical trial", "details": "vs intramuscular ceftriaxone plus oral azithromycin, ref recent phase III clinical trial; cited from earlier work"}, "[2]": {"system": "N. gonorrhoeae FA1090E (GyrA^WT/ParC^WT, efflux mutant)", "assay": "MIC by agar dilution, WT/WT efflux-mutant parental strain", "assay_type": "cell-based", "details": "Neisseria gonorrhoeae, 48 h", "method": "Mutations in these efflux genes can result in increased efflux to multiple antibiotics. […] Parental and isogenic mutant strains generated that carried the efflux mutations mtrR-79 and norM ΔT T6 were designated as FA1090E (E for efflux positive). Only the additional GyrA and ParC genotypes are described in Table and in the text. The mutant that additionally expressed ParC^D86N was named FA1090E-2.\n(§1) Minimum inhibitory concentration (MIC) of test compounds was determined by an agar dilution method, the reference testing method for N. gonorrhoeae according to the standards of the Clinical and Laboratory Standards Institute and the CDC."}, "[3]": {"system": "N. gonorrhoeae FA1090E-3 (GyrA^A92T/ParC^D86N)", "assay": "MIC by agar dilution, GyrA^A92T/ParC^D86N strain", "assay_type": "cell-based, Neisseria gonorrhoeae", "method": "This strain was designated FA1090E-3 (GyrA^A92T/ParC^D86N).\nas §1"}, "[4]": {"target": "T1, N. gonorrhoeae gyrase GyrA^D95G (Neisseria gonorrhoeae, UniProt P48371, D95G)", "T1 construct": "His; made in house", "T1 sequence (P48371 whole entry D95G)": "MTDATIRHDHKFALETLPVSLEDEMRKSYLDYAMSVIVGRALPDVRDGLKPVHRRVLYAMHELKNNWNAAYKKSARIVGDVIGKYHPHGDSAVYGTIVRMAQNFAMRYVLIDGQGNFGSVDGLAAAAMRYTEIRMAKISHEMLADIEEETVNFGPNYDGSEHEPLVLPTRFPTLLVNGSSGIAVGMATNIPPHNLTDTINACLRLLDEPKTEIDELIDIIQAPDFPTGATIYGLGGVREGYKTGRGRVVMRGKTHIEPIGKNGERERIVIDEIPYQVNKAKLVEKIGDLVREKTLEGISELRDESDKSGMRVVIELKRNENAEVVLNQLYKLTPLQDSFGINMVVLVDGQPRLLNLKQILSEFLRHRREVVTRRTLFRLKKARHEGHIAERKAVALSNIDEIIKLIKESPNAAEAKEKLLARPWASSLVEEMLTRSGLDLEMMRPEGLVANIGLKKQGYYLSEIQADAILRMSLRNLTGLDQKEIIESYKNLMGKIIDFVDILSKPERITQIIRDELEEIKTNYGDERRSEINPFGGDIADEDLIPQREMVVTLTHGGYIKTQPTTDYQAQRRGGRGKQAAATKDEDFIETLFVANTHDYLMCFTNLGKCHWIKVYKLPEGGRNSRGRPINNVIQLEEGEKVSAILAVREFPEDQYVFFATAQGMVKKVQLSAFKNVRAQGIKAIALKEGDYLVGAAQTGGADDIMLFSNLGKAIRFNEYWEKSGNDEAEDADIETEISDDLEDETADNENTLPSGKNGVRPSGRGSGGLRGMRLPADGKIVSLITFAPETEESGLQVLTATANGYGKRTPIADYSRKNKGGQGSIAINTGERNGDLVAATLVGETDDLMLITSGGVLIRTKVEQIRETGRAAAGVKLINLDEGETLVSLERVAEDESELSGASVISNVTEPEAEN", "T1 sequence (P22118 whole entry partner)": "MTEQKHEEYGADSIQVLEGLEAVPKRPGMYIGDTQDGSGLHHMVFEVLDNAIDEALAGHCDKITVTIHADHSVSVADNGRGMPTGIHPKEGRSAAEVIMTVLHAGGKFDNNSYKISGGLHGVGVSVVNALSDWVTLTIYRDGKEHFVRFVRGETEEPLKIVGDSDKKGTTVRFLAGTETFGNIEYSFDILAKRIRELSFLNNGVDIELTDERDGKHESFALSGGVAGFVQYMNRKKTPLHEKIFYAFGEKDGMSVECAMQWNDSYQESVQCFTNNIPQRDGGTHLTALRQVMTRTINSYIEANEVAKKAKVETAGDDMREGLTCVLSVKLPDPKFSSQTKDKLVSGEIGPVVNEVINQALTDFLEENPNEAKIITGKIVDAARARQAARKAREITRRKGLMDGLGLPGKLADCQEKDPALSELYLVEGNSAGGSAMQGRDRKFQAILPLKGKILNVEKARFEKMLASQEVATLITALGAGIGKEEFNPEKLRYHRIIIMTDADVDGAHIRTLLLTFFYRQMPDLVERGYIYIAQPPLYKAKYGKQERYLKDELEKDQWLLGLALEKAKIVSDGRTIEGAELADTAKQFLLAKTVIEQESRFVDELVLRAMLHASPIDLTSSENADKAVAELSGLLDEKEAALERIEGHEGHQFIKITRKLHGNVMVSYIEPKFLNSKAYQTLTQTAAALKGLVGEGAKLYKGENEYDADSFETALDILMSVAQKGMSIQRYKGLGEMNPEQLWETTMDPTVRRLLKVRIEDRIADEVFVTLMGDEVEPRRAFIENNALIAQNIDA", "assay": "DNA cleavage assay, GyrA^D95G gyrase", "assay_type": "biochemical", "method": "(§2) Some experiments replaced MgCl2 with an equivalent concentration of CaCl2 (10 mM), or 1.5 mM ATP was added to assay mixtures.\n(§3) Reactions were incubated at 37 °C for 30 min with WT and mutant (GyrA^D90N, GyrA^A92T, GyrA^S91F, GyrA^D95G, or GyrA^S91F/D95G) N. gonorrhoeae gyrase, 10 min with WT N. gonorrhoeae topoisomerase IV, and 20 min with mutant (ParC^D86N, ParC^S88P, ParC^S87N, or ParC^E91G) N. gonorrhoeae topoisomerase IV. Enzyme-DNA cleavage complexes were trapped by adding 2 μL of 5% SDS followed by 2 μL of 250 mM EDTA (pH 8.0). Proteinase K was added (2 μL of a 0.8 mg/mL solution), and reaction mixtures were incubated at 45 °C for 30 min to digest the enzyme. Samples were mixed with 2 μL of loading buffer and heated at 45 °C for 2 min prior to electrophoresis in 1% agarose gels in 40 mM Tris-acetate (pH 8.3), and 2 mM EDTA containing 0.5 μg/mL ethidium bromide. DNA bands were visualized by midrange ultraviolet light and quantified using an Alpha Innotech digital imaging system (Protein Simple). Single-stranded DNA cleavage was monitored by the conversion of negatively supercoiled to nicked plasmid molecules."}, "[5]": {"target": "T2, WT N. gonorrhoeae topoisomerase IV (Neisseria gonorrhoeae, UniProt P48374)", "T2 sequence (P48374 1-768)": "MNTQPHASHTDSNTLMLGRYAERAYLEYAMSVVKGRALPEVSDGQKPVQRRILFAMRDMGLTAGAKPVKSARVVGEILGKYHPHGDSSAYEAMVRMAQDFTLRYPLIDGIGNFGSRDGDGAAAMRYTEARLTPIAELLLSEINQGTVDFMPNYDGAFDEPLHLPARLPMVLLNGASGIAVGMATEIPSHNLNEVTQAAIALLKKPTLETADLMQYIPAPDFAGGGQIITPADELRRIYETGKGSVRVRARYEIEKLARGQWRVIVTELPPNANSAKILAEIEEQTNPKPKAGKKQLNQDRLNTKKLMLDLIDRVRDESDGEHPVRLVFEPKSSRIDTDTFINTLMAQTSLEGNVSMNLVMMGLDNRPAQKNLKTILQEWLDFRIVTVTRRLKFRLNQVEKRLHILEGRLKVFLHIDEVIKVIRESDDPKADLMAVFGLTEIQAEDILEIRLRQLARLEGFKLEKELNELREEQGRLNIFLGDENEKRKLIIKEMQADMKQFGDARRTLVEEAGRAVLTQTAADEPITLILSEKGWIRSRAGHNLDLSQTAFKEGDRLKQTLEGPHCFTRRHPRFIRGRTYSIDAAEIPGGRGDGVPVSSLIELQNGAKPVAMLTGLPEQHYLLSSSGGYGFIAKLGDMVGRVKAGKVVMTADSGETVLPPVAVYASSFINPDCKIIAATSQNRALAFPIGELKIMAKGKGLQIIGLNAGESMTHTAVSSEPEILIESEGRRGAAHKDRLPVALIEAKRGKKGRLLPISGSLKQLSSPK", "assay": "Topoisomerase IV-catalyzed DNA decatenation assay, WT", "assay_type": "biochemical", "parameters": "His; made in house", "method": "(§4) All proteins were His-tagged. N. gonorrhoeae WT gyrase (GyrA, GyrB) and topoisomerase IV (ParC, ParE) subunits as well as mutant GyrA^D90N, GyrA^A92T, GyrA^S91F, and GyrA^S91F/D95G gyrase and ParC^D86N and ParC^S88P topoisomerase IV were prepared as described previously. , N. gonorrhoeae mutant GyrA^D95G gyrase and mutant ParC^S87N and ParC^E91G topoisomerase IV were generated using a QuickChange II XL site-directed mutagenesis kit (Agilent Technologies) with custom primers for the desired mutations. Mutant N. gonorrhoeae GyrA and ParC subunits were expressed and purified as described by Ashley et al. with the following modifications to optimize protein expression and lysis: (1) GyrA^D95G was expressed for 2.5 h and ParC^S87N and ParC^E91G were expressed for 3 h before harvesting, and (2) cells were lysed by sonication using a digital sonifier (Branson). The identities of all constructs were confirmed by DNA sequencing, and all enzymes were stored at −80 °C. In all assays, N. gonorrhoeae gyrase or topoisomerase IV was used as a 1:1 GyrA:GyrB or ParC:ParE mixture, respectively, and the stated enzyme concentration reflects that of the holoenzyme (A2B2). […]"}, "[6]": {"system": "N. gonorrhoeae topoisomerase IV ParC^E91G", "assay": "Topoisomerase IV-catalyzed DNA decatenation assay, ParC^E91G", "assay_type": "biochemical, Neisseria gonorrhoeae", "details": "ParC E91G vs WT", "method": "as §4"}, "[7]": {"target": "T3, N. gonorrhoeae gyrase GyrA^S91F (Neisseria gonorrhoeae, UniProt P48371, S91F)", "T3 construct": "His; made in house", "T3 sequence (P48371 whole entry S91F)": "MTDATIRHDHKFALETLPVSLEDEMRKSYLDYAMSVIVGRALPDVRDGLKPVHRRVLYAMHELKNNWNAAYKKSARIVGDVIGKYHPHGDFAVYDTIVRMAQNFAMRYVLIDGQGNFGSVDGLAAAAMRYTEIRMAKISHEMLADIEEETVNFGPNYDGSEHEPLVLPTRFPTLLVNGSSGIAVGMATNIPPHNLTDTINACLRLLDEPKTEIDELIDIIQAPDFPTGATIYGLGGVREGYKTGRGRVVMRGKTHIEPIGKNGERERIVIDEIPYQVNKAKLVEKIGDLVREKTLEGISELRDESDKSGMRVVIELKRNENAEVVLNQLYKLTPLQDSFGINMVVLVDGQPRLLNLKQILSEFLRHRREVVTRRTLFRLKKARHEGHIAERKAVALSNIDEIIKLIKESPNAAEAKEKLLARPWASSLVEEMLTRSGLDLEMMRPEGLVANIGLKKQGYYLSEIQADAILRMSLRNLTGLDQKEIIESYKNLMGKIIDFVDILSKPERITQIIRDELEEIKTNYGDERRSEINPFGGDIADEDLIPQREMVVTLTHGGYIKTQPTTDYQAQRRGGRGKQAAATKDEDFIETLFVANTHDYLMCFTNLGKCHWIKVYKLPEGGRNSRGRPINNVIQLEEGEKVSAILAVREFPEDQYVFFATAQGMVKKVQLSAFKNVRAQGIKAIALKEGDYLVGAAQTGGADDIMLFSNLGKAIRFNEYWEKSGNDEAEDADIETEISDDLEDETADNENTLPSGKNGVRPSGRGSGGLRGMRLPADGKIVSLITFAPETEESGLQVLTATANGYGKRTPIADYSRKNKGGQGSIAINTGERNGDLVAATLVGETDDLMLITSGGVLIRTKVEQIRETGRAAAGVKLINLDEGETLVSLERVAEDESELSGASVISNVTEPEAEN", "T3 sequence (P22118 whole entry partner)": "as the sequence (P22118 whole entry partner) above", "assay": "DNA cleavage assay, GyrA^S91F gyrase", "assay_type": "biochemical", "method": "as §2, §3"}}, "note": "Entries after “also recorded” stand apart in the source; their conditions may differ.", "data": [{"smiles": "O=c1ccc2ncc(=O)n3c2n1C[C@H]3CN1CCC(NCc2cc3c(cn2)OCCC3)CC1", "note": "[gepotidacin]", "values": [{"measurement": "outcome of phase III clinical trial", "setting": "[1]", "value": "met its primary efficacy end point; also recorded: noninferiority"}, {"measurement": "MIC", "setting": "[2]", "value": 0.5, "unit": "µg/mL"}, {"measurement": "MIC", "setting": "[3]; Neisseria gonorrhoeae", "value": 8, "unit": "µg/mL"}, {"measurement": "fold-change in MIC from WT/WT parental strain", "setting": "[3]; strain FA1090E-3 vs FA1090E", "value": 16, "unit": "fold"}, {"measurement": "Adj-Max Cleavage, single-stranded DNA breaks", "setting": "[4]", "value": 17.9, "unit": "%"}, {"measurement": "EC50", "setting": "[4]; GyrA D95G gyrase, read-out: CC50, single-stranded DNA cleavage", "value": 1.3, "unit": "µM"}, {"measurement": "single-stranded DNA cleavage compared with WT gyrase", "setting": "[4]; GyrA D95G vs WT", "value": "nearly indistinguishable"}, {"measurement": "IC50", "setting": "[5]", "value": "1.8 ± 1.3", "unit": "µM"}, {"measurement": "fold lower decatenation IC50 vs WT topoisomerase IV", "setting": "[6]", "value": "~1.2", "unit": "fold"}, {"measurement": "Adj-Max Cleavage, single-stranded DNA breaks", "setting": "[7]", "value": 5.5, "unit": "%"}, {"measurement": "EC50", "setting": "[7]; GyrA S91F gyrase, read-out: CC50, single-stranded DNA cleavage", "value": 17.2, "unit": "µM"}, {"measurement": "fold decrease of adjusted maximal DNA cleavage vs WT", "setting": "[7]; GyrA S91F vs WT", "value": "~3.1", "unit": "fold"}]}]}
